The values that follow are results of earlier work, collected in patent US9750683B2, “Antifungal compositions for the treatment of skin and nails” (Veloce BioPharma, LLC, priority 2012, dated 2017).

Like-named read-outs stand apart in the source and are kept apart here.

For `COC1=CC(=O)C[C@@H](C)[C@]12Oc1c(Cl)c(OC)cc(OC)c1C2=O` [griseofulvin], the ratio of penetration runs as follows: (dissolved in DMSO, relative to the other solvents) 60; (dissolved in alcohol) 3; (dissolved in benzene) 1; (dissolved in dimethylacetamide) 40; (dissolved in dimethylformamide) 7.
